Source: patent US10954252B1, “Inhibitors of human immunodeficiency virus replication” (ViiV HEALTHCARE UK (NO.5) LIMITED, priority 2017, dated 2021)
Counter-ions that a name gives are not always drawn.

How the values were obtained:
Assay type in all cases: cell-based
uninfected MT2 cells = experiment: Compound cytotoxicity, XTT-based colorimetric assay; details: Table 1a, day 4, XTT
In short: (§1)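 CC50 from uninfected MT2 cells run under the antiviral-assay protocol without virus. Viability read on day 4 by XTT colorimetric assay.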

[1] = system: recombinant NL4-3 virus (nef section replaced with Renilla luciferase gene) in MT-2 cells; experiment: HIV cell culture assay (antiviral activity, luciferase readout); details: MT-2 cells infected for 4-5 days with recombinant NL4-3 luciferase virus
In short: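 NL4-3 reporter virus carrying Renilla luciferase in place of part of nef, produced in 293T cells, was used to infect MT-2 cells for 4-5 days with serial compound dilutions. Luciferase activity was read with a live-cell substrate; EC50 derived from the median effect equation.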

[2] = Compound cytotoxicity, XTT-based colorimetric assay; details: human, uninfected MT2 cells, day 4, XTT
In short: as §1

SMILES: COc1ccc2c(=O)n(-c3ccc(Cl)c4c(NS(C)(=O)=O)nn(CC(F)F)c34)c([C@H](Cc3cc(F)cc(F)c3)NC(=O)Cn3ccc(C4CC4)n3)nc2n1 (atropisomer, axis not shown) [Example 55.2, N-[(1S)-1-{3-[4-chloro-1-(2,2-difluoroethyl)-3-methanesulfonamido-1H-indazol-7-yl]-7-methoxy-4-oxo-3H,4H-pyrido[2,3-d]pyrimidin-2-yl}-2-(3,5-difluorophenyl)ethyl]-2-(3-cyclopropyl-1H-pyrazol-1-yl)acetamide]
- CC50 (uninfected MT2 cells): > 1000 nM
- EC50 ([1]; Table 1a): 0.33 nM

SMILES: COc1ccc2c(=O)n(-c3ccc(Cl)c4c(NS(C)(=O)=O)nn(C)c34)c([C@H](Cc3cc(F)cc(F)c3)NC(=O)Cn3ccc(C4CC4)n3)nc2n1 (mixture of isomers) [Example 58.2, N-[(1S)-1-[3-(4-chloro-3-methanesulfonamido-1-methyl-1H-indazol-7-yl)-7-methoxy-4-oxo-3H,4H-pyrido[2,3-d]pyrimidin-2-yl]-2-(3,5-difluorophenyl)ethyl]-2-(3-cyclopropyl-1H-pyrazol-1-yl)acetamide]
- CC50 (uninfected MT2 cells): > 1000 nM
- EC50 ([1]; Table 1a): 0.168 nM

SMILES: Cn1nc(NS(C)(=O)=O)c2c(Cl)ccc(-n3c([C@H](Cc4cc(F)cc(F)c4)NC(=O)Cn4nc(C(F)F)c5c4C(F)(F)[C@@H]4C[C@H]54)nc4cc(Cl)ccc4c3=O)c21 (mixture of isomers) [Example 168, N—((S)-1-(7-chloro-3-(4-chloro-1-methyl-3-(methylsulfonamido)-1H-indazol-7-yl)-4-oxo-3,4-dihydroquinazolin-2-yl)-2-(3,5-difluorophenyl)ethyl)-2-((3bS,4aR)-3-(difluoromethyl)-5,5-difluoro-3b,4,4a,5-tetrahydro-1H-cyclopropa[3,4]cyclopenta[1,2-c]pyrazol-1-yl)acetamide]
- CC50 (uninfected MT2 cells): > 1000 nM
- EC50 ([1]; Table 1a): 0.058 nM

SMILES: COc1cccc2nc([C@H](Cc3cc(F)cc(F)c3)NC(=O)Cn3nc(C(F)F)c4c3C(F)(F)[C@@H]3C[C@H]43)n(-c3ccc(Cl)c4c(NS(C)(=O)=O)nn(C)c34)c(=O)c12 (mixture of isomers) [Example 170, N—((S)-1-(3-(4-chloro-1-methyl-3-(methylsulfonamido)-1H-indazol-7-yl)-5-methoxy-4-oxo-3,4-dihydroquinazolin-2-yl)-2-(3,5-difluorophenyl)ethyl)-2-((3bS,4aR)-3-(difluoromethyl)-5,5-difluoro-3b,4,4a,5-tetrahydro-1H-cyclopropa[3,4]cyclopenta[1,2-c]pyrazol-1-yl)acetamide]
- CC50 (uninfected MT2 cells): > 1000 nM
- EC50 ([1]; Table 1a): 0.052 nM

SMILES: Cn1nc(NS(C)(=O)=O)c2c(Cl)ccc(-n3c([C@H](Cc4cc(F)cc(F)c4)NC(=O)Cn4nc(C(F)F)c5c4C(F)(F)[C@@H]4C[C@H]54)nc4cc(C5CC5)ccc4c3=O)c21 (mixture of isomers) [Example 198, N—((S)-1-(3-(4-chloro-1-methyl-3-(methylsulfonamido)-1H-indazol-7-yl)-7-cyclopropyl-4-oxo-3,4-dihydroquinazolin-2-yl)-2-(3,5-difluorophenyl)ethyl)-2-((3bS,4aR)-3-(difluoromethyl)-5,5-difluoro-3b,4,4a,5-tetrahydro-1H-cyclopropa[3,4]cyclopenta[1,2-c]pyrazol-1-yl)acetamide]
- CC50 (uninfected MT2 cells): > 1000 nM
- EC50 ([1]; Table 1a): 0.15 nM

SMILES: Cn1nc(NS(C)(=O)=O)c2c(Cl)ccc(-n3c([C@H](Cc4cc(F)cc(F)c4)NC(=O)Cn4nc(C(F)F)c5c4C(F)(F)[C@@H]4C[C@H]54)nc4cc(S(C)(=O)=O)ccc4c3=O)c21 (mixture of isomers) [Example 200, N—((S)-1-(3-(4-chloro-1-methyl-3-(methylsulfonamido)-1H-indazol-7-yl)-7-(methylsulfonyl)-4-oxo-3,4-dihydroquinazolin-2-yl)-2-(3,5-difluorophenyl)ethyl)-2-((3bS,4aR)-3-(difluoromethyl)-5,5-difluoro-3b,4,4a,5-tetrahydro-1H-cyclopropa[3,4]cyclopenta[1,2-c]pyrazol-1-yl)acetamide]
- CC50 (uninfected MT2 cells): > 1000 nM
- EC50 ([1]; Table 1a): 0.2 nM

SMILES: Cn1nc(NS(C)(=O)=O)c2c(Cl)ccc(-n3c([C@H](Cc4cc(F)cc(F)c4)NC(=O)Cn4nc(C(F)F)c5c4C(F)(F)[C@@H]4C[C@H]54)nc4cc(CS(C)(=O)=O)ccc4c3=O)c21 (mixture of isomers) [Example 202, N—((S)-1-(3-(4-chloro-1-methyl-3-(methylsulfonamido)-1H-indazol-7-yl)-7-((methylsulfonyl)methyl)-4-oxo-3,4-dihydroquinazolin-2-yl)-2-(3,5-difluorophenyl)ethyl)-2-((3bS,4aR)-3-(difluoromethyl)-5,5-difluoro-3b,4,4a,5-tetrahydro-1H-cyclopropa[3,4]cyclopenta[1,2-c]pyrazol-1-yl)acetamide]
- CC50 (uninfected MT2 cells): > 1000 nM
- EC50 ([1]; Table 1a): 0.3 nM

SMILES: CSc1nc2nc(C(Cc3cc(F)cc(F)c3)NC(=O)Cn3nc(C(F)F)c4c3C(F)(F)[C@@H]3C[C@H]43)c(-c3ccc(Cl)c4c(NS(C)(=O)=O)nn(C)c34)cc2s1 (stereo partly drawn) [Example 193, N-(1-(6-(4-chloro-1-methyl-3-(methylsulfonamido)-1H-indazol-7-yl)-2-(methylthio)thiazolo[4,5-b]pyridin-5-yl)-2-(3,5-difluorophenyl)ethyl)-2-((3bS,4aR)-3-(difluoromethyl)-5,5-difluoro-3b,4,4a,5-tetrahydro-1H-cyclopropa[3,4]cyclopenta[1,2-c]pyrazol-1-yl)acetamide]
- CC50 at 4 days ([2]; Table 1a): > 10000 nM
- EC50 ([1]; Renilla, NL43, Table 1a): 0.18 nM

SMILES: Cn1nc(NS(C)(=O)=O)c2c(Cl)ccc(-n3c([C@H](Cc4cc(F)cc(F)c4)NC(=O)Cc4c[nH]c5ccc(O)cc45)nc4cc(CS(C)(=O)=O)ccc4c3=O)c21 [Example 203, (S)—N-(1-(3-(4-chloro-1-methyl-3-(methylsulfonamido)-1H-indazol-7-yl)-7-((methylsulfonyl)methyl)-4-oxo-3,4-dihydroquinazolin-2-yl)-2-(3,5-difluorophenyl)ethyl)-2-(5-hydroxy-1H-indol-3-yl)acetamide]
- CC50 at 4 days ([2]; Table 1a): > 1000 nM
- EC50 ([1]; Table 1a): 166 nM

SMILES: CC(C)(c1ccc2c(=O)n(-c3ccc(Cl)c4c(NS(C)(=O)=O)nn(CC(F)F)c34)c([C@H](Cc3cc(F)cc(F)c3)NC(=O)Cn3nc(C(F)F)c4c3C(F)(F)[C@@H]3C[C@H]43)nc2c1)S(C)(=O)=O [Example 213, N—((S)-1-(3-(4-chloro-1-(2,2-difluoroethyl)-3-(methylsulfonamido)-1H-indazol-7-yl)-7-(2-(methylsulfonyl)propan-2-yl)-4-oxo-3,4-dihydroquinazolin-2-yl)-2-(3,5-difluorophenyl)ethyl)-2-((3bS,4aR)-3-(difluoromethyl)-5,5-difluoro-3b,4,4a,5-tetrahydro-1H-cyclopropa[3,4]cyclopenta[1,2-c]pyrazol-1-yl)acetamide]
- CC50 at 4 days ([2]; Table 1a): > 1000 nM
- EC50 ([1]; Renilla, NL43, Table 1a): 0.28 nM

SMILES: CC(C)(c1ccc2c(=O)n(-c3ccc(Cl)c4c(NS(=O)(=O)C5CC5)nn(CC(F)F)c34)c([C@H](Cc3cc(F)cc(F)c3)NC(=O)Cn3nc(C(F)F)c4c3C(F)(F)[C@@H]3C[C@H]43)nc2c1)S(C)(=O)=O [Example 214, N—((S)-1-(3-(4-chloro-3-(cyclopropanesulfonamido)-1-(2,2-difluoroethyl)-1H-indazol-7-yl)-7-(2-(methylsulfonyl)propan-2-yl)-4-oxo-3,4-dihydroquinazolin-2-yl)-2-(3,5-difluorophenyl)ethyl)-2-((3bS,4aR)-3-(difluoromethyl)-5,5-difluoro-3b,4,4a,5-tetrahydro-1H-cyclopropa[3,4]cyclopenta[1,2-c]pyrazol-1-yl)acetamide, TFA]
- CC50 at 4 days ([2]; Table 1a): > 1000 nM
- EC50 ([1]; Renilla, NL43, Table 1a): 0.071 nM

SMILES: CC(C)(C)c1ccc2c(=O)n(-c3ccc(Cl)c4c(NS(C)(=O)=O)nn(CC(F)F)c34)c([C@H](Cc3cc(F)cc(F)c3)NC(=O)Cn3nc(C(F)F)c4c3C(F)(F)[C@@H]3C[C@H]43)nc2c1 [Example 217, N—((S)-1-(7-(tert-Butyl)-3-(4-chloro-1-(2,2-difluoroethyl)-3-(methylsulfonamido)-1H-indazol-7-yl)-4-oxo-3,4-dihydroquinazolin-2-yl)-2-(3,5-difluorophenyl)ethyl)-2-((3bS,4aR)-3-(difluoromethyl)-5,5-difluoro-3b,4,4a,5-tetrahydro-1H-cyclopropa[3,4]cyclopenta[1,2c]pyrazol-1-yl)acetamide]
- CC50 at 4 days ([2]; Table 1a): > 1000 nM
- EC50 ([1]; Renilla, NL43, Table 1a): 0.25 nM

SMILES: CC(C)(C)c1ccc2c(=O)n(-c3ccc(Cl)c4c(NS(=O)(=O)C5CC5)nn(CC(F)F)c34)c([C@H](Cc3cc(F)cc(F)c3)NC(=O)Cn3nc(C(F)F)c4c3C(F)(F)[C@@H]3C[C@H]43)nc2c1 [Example 218, N—((S)-1-(7-(tert-Butyl)-3-(4-chloro-3-(cyclopropanesulfonamido)-1-(2,2-difluoroethyl)-1H-indazol-7-yl)-4-oxo-3,4-dihydroquinazolin-2-yl)-2-(3,5-difluorophenyl)ethyl)-2-((3bS,4aR)-3-(difluoromethyl)-5,5-difluoro-3b,4,4a,5-tetrahydro-1H-cyclopropa[3,4]cyclopenta[1,2-c]pyrazol-1-yl)acetamide]
- CC50 at 4 days ([2]; Table 1a): > 1000 nM
- EC50 ([1]; Renilla, NL43, Table 1a): 0.73 nM

SMILES: C[Si](C)(C)CCOCn1ncc2nc(C(Cc3cc(F)cc(F)c3)NC(=O)Cc3c[nH]c4ccc(F)cc34)c(-c3ccc4scnc4c3)cc21 (stereo not shown) [Int 6a, N-(1-(6-(benzo[d]thiazol-5-yl)-1-((2-(trimethylsilyl)ethoxy)methyl)-1H-pyrazolo[4,3-b]pyridin-5-yl)-2-(3,5-difluorophenyl)ethyl)-2-(5-fluoro-1H-indol-3-yl)acetamide]
- CC50 at 4 days ([2]; Table 1): 29200 nM
- EC50 ([1]; Renilla, NL43, Table 1): 110 nM
